Values of other authors, collected in patent US5892063A (Hauser, Inc., priority 1997, dated 1999).

Tests used:
[1] = test system: murine and human tumor cell lines; settings: cited from earlier work
[2] = test system: tumor models; settings: vs paclitaxel, cisplatin, cyclophosphamide, doxorubicin; same tumor models; cited from earlier work
[3] = test system: microtubule; settings: relative to paclitaxel; cited from earlier work
[4] = cited from earlier work
[5] = test system: murine and human xenografts; settings: cited from earlier work

SMILES: CC(=O)O[C@@]12CO[C@@H]1C[C@H](O)[C@@]1(C)C(=O)[C@H](O)C3=C(C)[C@@H](OC(=O)[C@H](O)[C@@H](NC(=O)OC(C)(C)C)c4ccccc4)C[C@@](O)([C@@H](OC(=O)c4ccccc4)[C@H]21)C3(C)C [Docetaxel, docetaxel]
- in vitro cytotoxicity [1]: impressive
- cytotoxic activity vs other antineoplastic agents [2]: higher cytoxic activity than other antineoplastic agents
- potency as inhibitor of microtubule depolymerization vs paclitaxel [3]: twice as potent
- aqueous solubility [4]: low aqueous solubility
- in vivo preclinical activity [5]: impressive
